For one experiment, the system named is PC-9. The experiment is described as follows: CCK-8 proliferation, PC-9. The experiment is classed as cell-based, Human. The settings on record: Homo sapiens, PC-9; CCK-8; 96 hours; read-out: Inhibitory activity (IC50) on tumor cell proliferation, PC-9. The method, then:
(§1) The tumor cells used herein were cultured in a cell culture medium listed in table A1 at 37°C in an incubator with 5% CO2. Prior to experimentation, all cell lines used were correctly identified by STR profiling, and tested negative for mycoplasma contamination using a mycoplasma detection kit through routine screenings. Table A1. Tumor cells and cell culture medium used in the present disclosure
(§2) IC50 values of the compounds of the present disclosure (including the compounds in Table 1, and compounds of examples) were measured using the Meilun Cell Counting Kit-8 kit from Dalian Meilun Biotech Co., Ltd. Assay details are as follows: tumor cells were seeded in a 96-well plate at a density listed in Table A2. After 24h, 100 µL of the inoculated cells were treated with 0.5µL of the compounds of the present disclosure (including the compounds in Tables 1 and 2, and compounds of examples) at 10 different successively decreasing concentrations (starting at the highest concentration of 10µM; 5-fold serial dilutions). After the cells were treated with the compounds of the present disclosure for a period of time, the cell viability detection reagent was added to the culture medium for cell viability assessment according to the instructions provided with the CCK-8 kit. […] The growth inhibition of the compounds of the present disclosure on cells was plotted by Prism Graphpad software, and the IC50 values of the compounds of the present disclosure were calculated therefrom. […] Seeding protocol and treatment time for tumor cells

In the next experiment the test system is SW620. Description: CCK-8 proliferation, SW620. It is filed as cell-based. The settings on record: Homo sapiens, SW-620; CCK-8; 96 hours; read-out: Inhibitory activity (IC50) on tumor cell proliferation, SW620. How it is done:
as §1, §2

The subject of another experiment is H1975. Description: CCK-8 proliferation, NCI-H1975 (H1975). It is filed as cell-based, Human. The settings on record: Homo sapiens, NCI-H1975; CCK-8; 96 hours; read-out: Inhibitory activity (IC50) on tumor cell proliferation, H1975. The gist of the method: (§3)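 Cells seeded, then after 24 h treated with 10 concentrations (top 10 µM, 5-fold serial dilution) for a line-specific time at 37°C, 5% CO2. Viability read by CCK-8; IC50 fitted from growth-inhibition curves.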

Another experiment relates to H2228. The experiment is described as follows: CCK-8 proliferation, NCI-H2228 (H2228). It is filed as cell-based. The note with it: Homo sapiens, NCI-H2228; CCK-8; 96 hours; read-out: Inhibitory activity (IC50) on tumor cell proliferation, H2228. The gist of the method:
as §3

In a further experiment the target is T1, FAK (Homo sapiens, UniProt Q05397).
T1 construct: evaluate the effects of the compounds of the present disclosure on the expression of target proteins in cells; endogenous in cells
Description: Western blot degradation of FAK. The settings on record: Table D7. It is filed as cell-based. How it is done: Conventional Western blot assay was performed to evaluate the effects of the compounds of the present disclosure on the expression of target proteins in cells.
(1) Cell Seeding and Protein Harvesting: The selected cells were processed according to the cell seeding procedure and protein harvesting procedure in Table III-2. Table III-2 Cell Seeding and Protein Harvesting Procedures
(2) To the collected supernatant, 5X SDS sample loading buffer was added, followed by denaturation at 95°C for 5 minutes. The denatured samples were then separated by SDS-PAGE electrophoresis on a polyacrylamide gel. Proteins were transferred to a nitrocellulose membrane (0.45 µm NC membrane), blocked with blocking buffer at room temperature for 1 hour, and subjected to antibody incubation and development procedures according to the antibody manufacturer's instructions (Cell Signaling Technology).
Half-Maximal Degradation Concentration value (the drug concentration required for degrading proteins by 50%, abbreviated as DC50) reads method: comparing the grayscale values of Western blot bands from drug-treated samples with those from blank DMSO-treated controls, and identifying the drug concentration range at which the grayscale value is half that of the DMSO-treated control bands.
DC50 values can be calculated using ImageJ software to measure grayscale values of Western blot bands from drug-treated samples. The concentration-response curve is fitted to estimate the drug concentration corresponding to half the grayscale value.
Target protein remaining (%) refers to the percentage of target protein remaining in hPBMC cells after treatment with protein degrader compounds.
Calculation method for target protein remaining (%): Use ImageJ software to measure grayscale values of Western blot bands from drug (protein degrader)-treated samples. The grayscale value of drug-treated bands is divided by that of internal control protein bands, and the resulting quotient is normalized to obtain the relative percentage of remaining target protein after protein degrader treatment.
Target protein degradation rate (%) = 100% - target protein remaining (%).

Another experiment concerns CCRF-CEM. Description: CCK-8 proliferation, CCRF-CEM. The settings on record: Homo sapiens, CCRF-CEM; CCK-8; 96 hours; read-out: Inhibitory activity (IC50) on tumor cell proliferation, CCRF-CEM. It is filed as cell-based, Human. The gist of the method:
as §3

The target of experiment [1] is T2, human Cereblon WT GST-tagged protein (Homo sapiens, UniProt Q96SW2).
T2 construct: purchased CISBIO 64BDCRBNPEH
The experiment is described as follows: CRBN binding, HTRF (CEREBLON BINDING kit). The note with it: Table II-2, CRBN binding screening, HTRF; for inhibition at 0.5 µM: read-out: Inhibition rate (%) at 0.5µM; for inhibition at 2 µM: read-out: Inhibition rate (%) at 2 µM. The gist of the method: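 Competitive HTRF: GST-tagged human WT Cereblon mixed with compound, Thalidomide-Re tracer and GST Eu antibody, incubated 3 h at room temperature. Signals read at 620 and 665 nm.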
(TR-FRET usually uses a lanthanide donor and a delayed reading to cut background.)

Another experiment has as its system SR. The experiment is described as follows: CCK-8 proliferation, SR. It is filed as cell-based, Human. The note with it: Homo sapiens, SR; CCK-8; 72 hours; read-out: Inhibitory activity (IC50) on tumor cell proliferation, SR. The gist of the method:
as §3

Another experiment deals with MV-4-11. The experiment is described as follows: CCK-8 proliferation, MV-4-11. The experiment is classed as cell-based, Human. The note with it: Homo sapiens, MV4-11; CCK-8; 72 or 96 hours; read-out: Inhibitory activity (IC50) on tumor cell proliferation, MV-4-11. How it is done: as §1, §2
For another experiment, the system named is Jurkat. The experiment is described as follows: CCK-8 proliferation, Jurkat. It is filed as cell-based, Human. The note with it: Homo sapiens, Jurkat; CCK-8; 96 hours; read-out: Inhibitory activity (IC50) on tumor cell proliferation, Jurkat. How it is done: as §1, §2

T2 sequence (Q96SW2 whole entry): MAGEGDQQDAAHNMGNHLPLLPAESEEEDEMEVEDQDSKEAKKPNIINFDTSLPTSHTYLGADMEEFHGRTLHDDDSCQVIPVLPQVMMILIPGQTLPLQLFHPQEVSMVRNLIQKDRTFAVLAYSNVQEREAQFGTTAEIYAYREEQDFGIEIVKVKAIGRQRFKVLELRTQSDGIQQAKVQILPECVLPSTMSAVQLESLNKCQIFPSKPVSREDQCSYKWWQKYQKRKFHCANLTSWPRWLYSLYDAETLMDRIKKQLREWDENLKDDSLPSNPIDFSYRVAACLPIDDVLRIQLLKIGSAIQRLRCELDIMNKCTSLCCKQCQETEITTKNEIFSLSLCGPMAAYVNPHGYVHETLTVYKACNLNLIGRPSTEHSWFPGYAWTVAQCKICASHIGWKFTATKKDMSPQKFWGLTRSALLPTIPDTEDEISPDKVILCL
T1 sequence (Q05397 whole entry, species assumed): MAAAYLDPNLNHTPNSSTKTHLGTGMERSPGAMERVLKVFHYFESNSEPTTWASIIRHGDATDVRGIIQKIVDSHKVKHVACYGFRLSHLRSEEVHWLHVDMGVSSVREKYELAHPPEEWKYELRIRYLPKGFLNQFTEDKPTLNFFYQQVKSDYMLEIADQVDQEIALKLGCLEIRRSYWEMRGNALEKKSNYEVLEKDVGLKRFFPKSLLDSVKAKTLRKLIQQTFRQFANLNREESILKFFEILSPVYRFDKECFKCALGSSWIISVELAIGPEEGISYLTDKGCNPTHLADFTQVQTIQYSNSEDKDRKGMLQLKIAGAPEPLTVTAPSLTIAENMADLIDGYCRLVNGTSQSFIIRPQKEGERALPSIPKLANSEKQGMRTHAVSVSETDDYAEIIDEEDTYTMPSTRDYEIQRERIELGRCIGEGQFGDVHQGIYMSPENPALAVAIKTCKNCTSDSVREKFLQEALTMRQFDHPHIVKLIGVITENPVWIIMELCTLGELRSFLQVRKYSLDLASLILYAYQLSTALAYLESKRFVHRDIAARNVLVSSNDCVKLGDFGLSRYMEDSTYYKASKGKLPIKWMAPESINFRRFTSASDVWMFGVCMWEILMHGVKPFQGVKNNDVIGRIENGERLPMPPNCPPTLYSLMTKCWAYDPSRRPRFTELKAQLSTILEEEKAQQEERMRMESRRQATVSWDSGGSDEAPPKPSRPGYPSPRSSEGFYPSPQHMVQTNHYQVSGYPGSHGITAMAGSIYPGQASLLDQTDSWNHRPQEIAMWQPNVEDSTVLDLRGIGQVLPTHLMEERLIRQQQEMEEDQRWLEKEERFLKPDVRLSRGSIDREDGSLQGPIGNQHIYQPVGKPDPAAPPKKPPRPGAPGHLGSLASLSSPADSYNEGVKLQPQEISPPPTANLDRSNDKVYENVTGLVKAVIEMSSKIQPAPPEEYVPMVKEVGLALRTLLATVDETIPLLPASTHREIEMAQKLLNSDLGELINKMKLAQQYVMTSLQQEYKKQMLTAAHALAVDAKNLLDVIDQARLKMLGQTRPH

For the compound `NC(=O)c1ncc(N2CCCCC2)nc1Nc1ccc(C2CCN(Cc3ccc(N4CCC(=O)NC4=O)cc3F)CC2)cc1` [GT-04790, 3-((4-(1-(4-(2,4-dioxotetrahydropyrimidin-1(2H)-yl)-2-fluorobenzyl)piperidin-4-yl)phenyl)amino)-5-(piperidin-1-yl)pyrazine-2-carboxamide], the IC50 in the experiment with PC-9 lay in the range of 100 to 500 nM; in the experiment with SW620, 500 to 1000 nM; with H1975 it was 500 to 1000 nM; in the experiment with H2228 it was 100 to 500 nM.
As for `CNC(=O)c1ccccc1Nc1cc(Nc2ccc(N3CCC(N4CCN(Cc5ccc(C6CCC(=O)NC6=O)cc5)CC4)CC3)cc2OC)ncc1C(F)(F)F` (centres unmarked) [GT-03599, 2-((2-((4-(4-(4-(4-(2,6-dioxopiperidin-3-yl)benzyl)piperazin-1-yl)piperidin-1-yl)-2-methoxyphenyl)amino)-5-(trifluoromethyl)pyridin-4-yl)amino)-N-methylbenzamide], the “Degradation of substrate protein FAK (substrate protein remaining %)” value (from here on “Degradation … (substrate protein remaining %)”) on FAK is “A (A is defined as 0% ≤ substrate protein remaining % ≤ 80%)”. In addition, in the experiment on CCRF-CEM, the IC50 was in the range of 100 to 500 nM.
For the compound `CNC(=O)c1ccccc1Nc1cc(Nc2ccc(N3CCN(Cc4ccc(C5CCC(=O)NC5=O)c(F)c4)CC3)cc2OC)ncc1C(F)(F)F` (centres unmarked) [GT-03717, 2-((2-((4-(4-(4-(2,6-dioxopiperidin-3-yl)-3-fluorobenzyl)piperazin-1-yl)-2-methoxyphenyl)amino)-5-(trifluoromethyl)pyridin-4-yl)amino)-N-methylbenzamide], in experiment [1], the inhibition – broadly, the share of the control response that was lost under treatment – at 0.5 µM fell in the range of 30 to 40%. The inhibition at 2 µM in [1] fell in the range of 40 to 53%. Further, the IC50 with SW620 was 500 to 1000 nM; in the experiment with H1975 it was 500 to 1000 nM; in the experiment on SR, 100 to 500 nM; in the experiment with MV-4-11, 100 to 500 nM. Besides, the “Degradation … (substrate protein remaining %)” value on FAK is “A (A is defined as 0% ≤ substrate protein remaining % ≤ 80%)”.
In the case of `COc1cc(C(=O)NC2CCN(Cc3ccc(C4CCC(=O)NC4=O)cc3)CC2)c(F)cc1Nc1ncc(C(F)(F)F)c(Oc2cccc3c2C(=O)N(C)C3)n1` (centres unmarked) [GT-04034, N-(1-(4-(2,6-dioxopiperidin-3-yl)benzyl)piperidin-4-yl)-2-fluoro-5-methoxy-4-((4-((2-methyl-3-oxoisoindolin-4-yl)oxy)-5-(trifluoromethyl)pyrimidin-2-yl)amino)benzamide], in [1], the inhibition at 0.5 µM was 53 to 60% and the inhibition at 2 µM fell in the range of 80 to 100%. In addition, the “Degradation … (substrate protein remaining %)” value at FAK is recorded as “A (A is defined as 0% ≤ substrate protein remaining % ≤ 80%)”.
As to `CNC(=O)c1ccccc1Nc1cc(Nc2cc(C)c(N3CCN(Cc4ccc(C5CCC(=O)NC5=O)cc4)CC3)cc2OC(C)C)ncc1C(F)(F)F` (centres unmarked) [GT-03946, 2-((2-((4-(4-(4-(2,6-dioxopiperidin-3-yl)benzyl)piperazin-1-yl)-2-isopropoxy-5-methylphenyl)amino)-5-(trifluoromethyl)pyridin-4-yl)amino)-N-methylbenzamide], in experiment [1], the inhibition at 0.5 µM fell in the range of 30 to 40% and the inhibition at 2 µM lay within 53 to 60%. On FAK, the “Degradation … (substrate protein remaining %)” value is on record as “A (A is defined as 0% ≤ substrate protein remaining % ≤ 80%)”.
With `CN(c1nccnc1CNc1nc(Nc2ccc(N3CCN(Cc4cncc(C5CCC(=O)NC5=O)c4)CC3)cc2)ncc1C(F)(F)F)S(C)(=O)=O` (centres unmarked) [GT-07510, N-(3-(((2-((4-(4-((5-(2,6-dioxopiperidin-3-yl)pyridin-3-yl)methyl)piperazin-1-yl)phenyl)amino)-5-(trifluoromethyl)pyrimidin-4-yl)amino)methyl)pyrazin-2-yl)-N-methylmethanesulfonamide], the “Degradation … (substrate protein remaining %)” value on FAK is “A (A is defined as 0% ≤ substrate protein remaining % ≤ 80%)”.
With `CNC(=O)c1ccccc1Nc1cc(Nc2ccc(N3CCC(N(C)Cc4ccc(C5CCC(=O)NC5=O)nc4)CC3)cc2OC)ncc1C(F)(F)F` (centres unmarked) [GT-07657, 2-((2-((4-(4-(((6-(2,6-dioxopiperidin-3-yl)pyridin-3-yl)methyl)(methyl)amino)piperidin-1-yl)-2-methoxyphenyl)amino)-5-(trifluoromethyl)pyridin-4-yl)amino)-N-methylbenzamide], the “Degradation … (substrate protein remaining %)” value on FAK is on record as “A (A is defined as 0% ≤ substrate protein remaining % ≤ 80%)”.
With `COc1cc(C(=O)NC2CCN(Cc3ccc(C4CCC(=O)NC4=O)c(F)c3)CC2)c(F)cc1Nc1ncc(C(F)(F)F)c(Oc2cccc3c2C(=O)N(C)C3)n1` (centres unmarked) [GT-04035, N-(1-(4-(2,6-dioxopiperidin-3-yl)-3-fluorobenzyl)piperidin-4-yl)-2-fluoro-5-methoxy-4-((4-((2-methyl-3-oxoisoindolin-4-yl)oxy)-5-(trifluoromethyl)pyrimidin-2-yl)amino)benzamide], in [1], the inhibition at 0.5 µM was in the range of 40 to 53% and the inhibition at 2 µM lay within 80 to 100%. Moreover, in the experiment with Jurkat, the IC50 was 50 to 100 nM. Moreover, the “Degradation … (substrate protein remaining %)” value at FAK is on record as “A (A is defined as 0% ≤ substrate protein remaining % ≤ 80%)”.
As to `CNC(=O)c1ccccc1Nc1cc(Nc2cc(C)c(N3CCC(N(C)Cc4ccc(C5CCC(=O)NC5=O)c(F)c4)CC3)cc2OC(C)C)ncc1C(F)(F)F` (centres unmarked) [GT-04095, 2-((2-((4-(4-((4-(2,6-dioxopiperidin-3-yl)-3-fluorobenzyl)(methyl)amino)piperidin-1-yl)-2-isopropoxy-5-methylphenyl)amino)-5-(trifluoromethyl)pyridin-4-yl)amino)-N-methylbenzamide], in experiment [1], the inhibition at 0.5 µM was in the range of 20 to 30% and the inhibition at 2 µM lay within 60 to 80%. Further, the “Degradation … (substrate protein remaining %)” value on FAK was “A (A is defined as 0% ≤ substrate protein remaining % ≤ 80%)”.
Regarding `CS(=O)(=O)c1cccc(CNc2nc(Nc3ccc(N4CCN(Cc5ccc(C6CCC(=O)NC6=O)cc5)CC4)cc3)ncc2C(F)(F)F)c1` (centres unmarked) [GT-03822, 3-(4-((4-(4-((4-((3-(methylsulfonyl)benzyl)amino)-5-(trifluoromethyl)pyrimidin-2-yl)amino)phenyl)piperazin-1-yl)methyl)phenyl)piperidine-2,6-dione], the “Degradation … (substrate protein remaining %)” value on FAK was “A (A is defined as 0% ≤ substrate protein remaining % ≤ 80%)”.

The values are drawn from patent publication EP4678638A1, “NEW E3 UBIQUITIN LIGASE LIGAND, PROTEIN DEGRADATION AGENT AND USE THEREOF” (priority 2023, dated 2024).
